≈ marks a conversion by molar mass, not a printed value. Calls of active or inactive are those of the source.

The subject of data set [1] is Streptococcus pneumoniae. As to the kind of experiment: Inhibition of efflux pump in ciprofloxacin pretreated Streptococcus pneumoniae Spn-RC2 at 20 ug/ml by ethidium bromide uptake assay.
In data set [2] the test system is Streptococcus pneumoniae. As to the kind of experiment: Antimicrobial activity against Streptococcus pneumoniae Spn-RC2 infected in one-compartment pharmacodynamic system assessed as regrowth of bacteria administered at simulated at 750 mg dosage regimen every 12 hrs measured on day 8. The class given is functional, organism-based.
Data set [3] relates to Streptococcus pneumoniae. As to the kind of experiment: Induction of efflux pump expression in Streptococcus pneumoniae Spn-058 after 5 hrs by ethidium bromide uptake assay.
The subject of data set [4] is Streptococcus pneumoniae. As to the kind of experiment: Inhibition of efflux pump in Streptococcus pneumoniae Spn-058 harboring mutation in parC and […] gene assessed as decrease in ciprofloxacin MIC.
The subject of data set [5] is Streptococcus pneumoniae. As to the kind of experiment: Inhibition of efflux pump in Streptococcus pneumoniae Spn-058 infected in one-compartment pharmacodynamic system assessed as repid killing administered levofloxacin at simulated oral dose regimen of 750 mg in human every 12 hrs measured on day 6.
Data set [6] has as its system Streptococcus pneumoniae. As to the kind of experiment: Inhibition of efflux pump in Streptococcus pneumoniae Spn-058 assessed as change in levofloxacin MIC at 20 ug/ml by broth macrodilution method.
Data set [7] concerns Streptococcus pneumoniae. As to the kind of experiment: Inhibition of efflux pump in Streptococcus pneumoniae Spn-058 with harboring Ser79Tyr mutation in parC gene assessed as decrease in ciprofloxacin MIC.
Data set [8] deals with Streptococcus pneumoniae. As to the kind of experiment: Inhibition of efflux pump in Streptococcus pneumoniae Spn-RC2 assessed as reduction in levofloxacin at 20 ug/ml MIC by broth microdilution method. (In general: Dilution methods test growth across graded concentrations, often in twofold steps.)
Data set [9] deals with Streptococcus pneumoniae. As to the kind of experiment: Inhibition of efflux pump in Streptococcus pneumoniae Spn-RC2 assessed as reduction in ciprofloxacin MIC by agar microdilution method.
Data set [10] concerns Streptococcus pneumoniae. As to the kind of experiment: Inhibition of efflux pump in Streptococcus pneumoniae Spn-058 assessed as change in levofloxacin MIC by agar dilution method. A general note: Agar dilution tests growth on a series of plates holding different concentrations.
Data set [11] relates to Streptococcus pneumoniae. As to the kind of experiment: Antimicrobial activity against Streptococcus pneumoniae Spn-058 at 5.5 to 8 log10 CFU/ml bacterial density measured within 24 hrs. The format is functional, organism-based.
The subject of data set [12] is Streptococcus pneumoniae. As to the kind of experiment: Inhibition of efflux pump in Streptococcus pneumoniae Spn-058 assessed as ethidium bromide uptake at 20 ug/ml.
In data set [13] the test system is Streptococcus pneumoniae. As to the kind of experiment: Inhibition of efflux pump in Streptococcus pneumoniae Spn-058 assessed as change in ciprofloxacin MIC by agar dilution method.
Data set [14] has as its system Streptococcus pneumoniae. As to the kind of experiment: Antimicrobial activity against Streptococcus pneumoniae Spn-RC2 infected in one-compartment pharmacodynamic system assessed as decrease in bacterial density administered at simulated at 500 mg QD dosage regimen for 10 days measured after 24 hrs by quantitative culture assay. The format is functional, organism-based.

In data set [15] the test system is Streptococcus pneumoniae. As to the kind of experiment: Inhibition of efflux pump in Streptococcus pneumoniae Spn-RC2 assessed as change in levofloxacin MIC by agar dilution method.
For data set [16], the system named is Streptococcus pneumoniae. As to the kind of experiment: Inhibition of ciprofloxacin-induced efflux pump expression in Streptococcus pneumoniae Spn-058 after 5 hrs by ethidium bromide uptake assay.
In data set [17] the test system is Streptococcus pneumoniae. As to the kind of experiment: Induction of efflux pump expression in Streptococcus pneumoniae Spn-RC2 after 5 hrs by ethidium bromide uptake assay.
Data set [18] has as its system Streptococcus pneumoniae. As to the kind of experiment: Antimicrobial activity against Streptococcus pneumoniae Spn-058 infected in one-compartment pharmacodynamic system assessed as prevention of regrowth administered ciprofloxacin at simulated oral dose regimen of 750 mg in human every 12 hrs measured on day 10. The class given is functional, organism-based.
Data set [19] relates to Streptococcus pneumoniae. As to the kind of experiment: Inhibition of efflux pump in Streptococcus pneumoniae Spn-058 assessed as reduction in levofloxacin MIC by broth microdilution method.
For data set [20], the system named is Streptococcus pneumoniae. As to the kind of experiment: Inhibition of efflux pump in Streptococcus pneumoniae Spn-058 infected in one-compartment pharmacodynamic system assessed as repid killing administered levofloxacin at simulated oral dose regimen of 750 mg in human every 24 hrs measured on day 10.
The test system of data set [21] is Streptococcus pneumoniae. As to the kind of experiment: Inhibition of efflux pump in Streptococcus pneumoniae Spn-RC2 assessed as reduction in ciprofloxacin MIC at 20 ug/ml by broth microdilution method.
Data set [22] relates to Streptococcus pneumoniae. As to the kind of experiment: Inhibition of efflux pump in Streptococcus pneumoniae Spn-RC2 assessed as ethidium bromide uptake at 20 ug/ml.
Data set [23] deals with Streptococcus pneumoniae. As to the kind of experiment: Inhibition of efflux pump in Streptococcus pneumoniae Spn-RC2 assessed as reduction in levofloxacin MIC by agar microdilution method.
Data set [24] concerns Streptococcus pneumoniae. As to the kind of experiment: Inhibition of efflux pump in Streptococcus pneumoniae Spn-RC2 assessed as change in ciprofloxacin MIC by agar dilution method.
Data set [25] deals with Streptococcus pneumoniae. As to the kind of experiment: Inhibition of efflux pump in Streptococcus pneumoniae Spn-058 assessed as reduction in ciprofloxacin MIC by agar dilution method.
The subject of data set [26] is Streptococcus pneumoniae. As to the kind of experiment: Inhibition of efflux pump in Streptococcus pneumoniae Spn-058 assessed as reduction in levofloxacin MIC by agar dilution method.
Data set [27] has as its system Streptococcus pneumoniae. As to the kind of experiment: Inhibition of efflux pump in Streptococcus pneumoniae Spn-058 infected in one-compartment pharmacodynamic system assessed as repid killing administered levofloxacin at simulated oral dose regimen of 500 mg in human measured on day 6.
For data set [28], the system named is Streptococcus pneumoniae. As to the kind of experiment: Inhibition of efflux pump in Streptococcus pneumoniae Spn-058 assessed as change in ciprofloxacin MIC at 20 ug/ml by broth macrodilution method.
Data set [29] deals with Streptococcus pneumoniae. As to the kind of experiment: Inhibition of efflux pump in Streptococcus pneumoniae Spn-058 with harboring mutation in parC gene assessed as decrease in levofloxacin MIC.
The subject of data set [30] is Streptococcus pneumoniae. As to the kind of experiment: Antimicrobial activity against Streptococcus pneumoniae Spn-058 assessed as bacterial load. The format is functional, organism-based.
In data set [31] the test system is Streptococcus pneumoniae. As to the kind of experiment: Induction of efflux pump expression in Streptococcus pneumoniae Spn-058 harboring mutation in gyrA gene at 20 ug/ml.
The test system of data set [32] is Streptococcus pneumoniae. As to the kind of experiment: Inhibition of efflux pump in Streptococcus pneumoniae Spn-058 assessed as reduction in ciprofloxacin MIC by broth microdilution method.
In data set [33] the test system is Streptococcus pneumoniae. As to the kind of experiment: Antimicrobial activity against Streptococcus pneumoniae Spn-RC2 infected in one-compartment pharmacodynamic system assessed as decrease in bacterial population administered at simulated oral dose regimen of 500 mg in human for 10 days by quantitative culture assay. The format is functional, organism-based.

Data set [34] can be described thus: Half life in one-compartment pharmacodynamic system administered at simulated oral dose regimen of 500 mg in human for 10 days. The format is ADME, organism-based.
Data set [35] concerns Streptococcus pneumoniae. As to the kind of experiment: Antimicrobial activity against Streptococcus pneumoniae Spn-058 infected in one-compartment pharmacodynamic system assessed as regrowth of bacteria administered at simulated at 500 mg QD dosage regimen measured on day 6. The format is functional, organism-based.
Data set [36] can be described thus: Free AUC (0 to 24 hrs) in one-compartment pharmacodynamic system administered at simulated oral dose regimen of 500 mg in human for 10 days. The class given is ADME.
The test system of data set [37] is Streptococcus pneumoniae. As to the kind of experiment: Antimicrobial activity against Streptococcus pneumoniae Spn-RC2 infected in one-compartment pharmacodynamic system assessed as regrowth of bacteria administered at simulated at 750 mg dosage regimen every 12 hrs measured on day 3. The class given is functional, organism-based.
Data set [38] has as its system Streptococcus pneumoniae. As to the kind of experiment: Antimicrobial activity against Streptococcus pneumoniae Spn-058 infected in one-compartment pharmacodynamic system assessed as reduction in bacterial density administered at simulated at 500 mg QD dosage regimen measured on day 1. The class given is functional, organism-based.
Data set [39] is described as follows: Stability assessed as degradation half life. The class given is physicochemical.
Data set [40] has as its system Streptococcus pneumoniae. As to the kind of experiment: Antimicrobial activity against Streptococcus pneumoniae Spn-058 infected in one-compartment pharmacodynamic system assessed as decrease in bacterial population administered at simulated at 750 mg dosage regimen every 12 hrs for 10 days by quantitative culture assay. The format is functional, organism-based.
The subject of data set [41] is Streptococcus pneumoniae. As to the kind of experiment: Antimicrobial activity against Streptococcus pneumoniae Spn-058 by broth macrodilution technique in presence of 5% lysed horse blood. The format is functional.
The subject of data set [42] is Streptococcus pneumoniae. As to the kind of experiment: Antimicrobial activity against Streptococcus pneumoniae Spn-058 infected in one-compartment pharmacodynamic system assessed as reduction in bacterial density administered at simulated oral dose regimen of 750 mg in human every 12 hrs measured on day 1. The class given is functional, organism-based.
Data set [43] concerns Streptococcus pneumoniae. As to the kind of experiment: Antimicrobial activity against Streptococcus pneumoniae Spn-058 infected in one-compartment pharmacodynamic system assessed as regrowth of bacteria administered at simulated oral dose regimen of 750 mg in human every 12 hrs measured on day 2. The format is functional, organism-based.
In data set [44] the test system is Streptococcus pneumoniae. As to the kind of experiment: Antimicrobial activity against Streptococcus pneumoniae Spn-RC2 by broth macrodilution technique.

Consider `COC(=O)[C@H]1[C@H]2C[C@@H]3c4[nH]c5cc(OC)ccc5c4CCN3C[C@H]2C[C@@H](OC(=O)c2cc(OC)c(OC)c(OC)c2)[C@@H]1OC`, for which the result in the data set with Streptococcus pneumoniae [1], in the data set on Streptococcus pneumoniae [3], in the data set on Streptococcus pneumoniae [4], with Streptococcus pneumoniae [5], in the data set with Streptococcus pneumoniae [7] and in the data set on Streptococcus pneumoniae [8] was Active. Moreover, the result with Streptococcus pneumoniae [9], with Streptococcus pneumoniae [10], with Streptococcus pneumoniae [11], with Streptococcus pneumoniae [12], with Streptococcus pneumoniae [13] and with Streptococcus pneumoniae [15] was Active. The outcome in the data set on Streptococcus pneumoniae [16], in the data set on Streptococcus pneumoniae [17], in the data set on Streptococcus pneumoniae [18], in the data set with Streptococcus pneumoniae [19], in the data set with Streptococcus pneumoniae [20] and in the data set on Streptococcus pneumoniae [21] was Active. Also, the result with Streptococcus pneumoniae [22], with Streptococcus pneumoniae [23], in the data set with Streptococcus pneumoniae [24], in the data set with Streptococcus pneumoniae [25], in the data set with Streptococcus pneumoniae [26] and in the data set with Streptococcus pneumoniae [27] was Active. Also, the result with Streptococcus pneumoniae [29], in the data set on Streptococcus pneumoniae [30], with Streptococcus pneumoniae [31] and in the data set with Streptococcus pneumoniae [32] was Active. The result in the data set with Streptococcus pneumoniae [2], with Streptococcus pneumoniae [6], in the data set on Streptococcus pneumoniae [14] and with Streptococcus pneumoniae [28] was inactive.

`C[C@H]1COc2c(N3CCN(C)CC3)c(F)cc3c(=O)c(C(=O)O)cn1c23.C[C@H]1COc2c(N3CCN(C)CC3)c(F)cc3c(=O)c(C(=O)O)cn1c23.O` [LEVOFLOXACIN]: the result with Streptococcus pneumoniae [33], with Streptococcus pneumoniae [37], in the data set on Streptococcus pneumoniae [38] and in the data set with Streptococcus pneumoniae [40] was Active. The half-life (as a rule, the time needed for the level to fall by half in the phase considered) is 7 h in [34] and 20 h in [39]. For the same compound, the outcome with Streptococcus pneumoniae [35] was inactive. This compound had a fAUC in data set [36] of 36000 ng·h/mL. In the data set on Streptococcus pneumoniae [41], the MBC (in general, the smallest concentration meeting the test's criterion for killing) is 1 µg/mL.

As to `O=C(O)c1cn(C2CC2)c2cc(N3CCNCC3)c(F)cc2c1=O` [CIPROFLOXACIN], the result with Streptococcus pneumoniae [42], in the data set on Streptococcus pneumoniae [37] and with Streptococcus pneumoniae [18] was Active. The outcome in the data set with Streptococcus pneumoniae [43] was inactive. The minimal inhibitory concentration (MIC) (commonly the lowest concentration that inhibits growth of the organism) against Streptococcus pneumoniae [44] was found to be 2 µg/mL (≈ 6.04 µM); in the data set with Streptococcus pneumoniae [41], 1 µg/mL. The MBC in the data set on Streptococcus pneumoniae [41] amounted to 1 µg/mL.

These data come from ChEMBL document CHEMBL1153545 (Antimicrob Agents Chemother, 2007).
